Here are results for 21 compounds from US6576614B1, “Peptide analogs as irreversible interleukin-1β protease inhibitors” (Vertex Pharmaceuticals Incorporated, priority 1993, dated 2003).

Series [1] concerns mature IL-1β release from human monocytes. The series is described as follows: Release of mature IL-1β from human monocytes (pulse chase assay). The format is cell-based. Particulars: inhibition of release of mature IL-1β; human monocytes activated with fixed S. aureus; 2-3 donors; read-out: in vivo IC50. The method, then: Compounds of the present invention were tested for their ability to block mature IL-1β release from cells (monocytes) as described in the following protocol:
Protocol for Monitoring Release of Mature IL-1β-From Human Monocytes
Human monocytes were isolated from heparinized leukopheresis units obtained through Biological Specialty Corporation (Lansdale, Pa.). Monocytes were purified by Ficoll-Hupaque (Pharmacia Fine Chemicals, Piscataway, N.J.) gradient centrifugation and more than 95% pure monocyte populations obtained by centrifugal elutriation. The assay was performed on duplicate samples of freshly isolated human monocytes, cultured in suspension at 37° C. and rotated gently in conical bottom polypropylene tubes (Sardstedt Inc., Princeton, N.J.). Human monocytes at a concentration of 5×10^6 cells/mL were resuspended in 1 mL of RPMI 1640 (a common tissue buffer from M.A. Bioproducts, Walkersyille, Md.) containing 1% fetal calf serum (FCS) (HyClone, Logan, Utah) and 50 μg/mL gentamycin (Gibco, Grand Island, N.Y.). The cells were treated either with a compound of the invention (i.e. test compound) or with a non-inhibitor (control compound, typically 0.03% DMSO) for 15 minutes and then activated with 0.01% fixed Staphylococcus aureus (The Enzyme Center, Malden, Mass.) for 1 hour. The cells were then centrifuged and resuspended in 1 mL of cysteine, methionine-free RPMI media containing 1% dialyzed FCS (Hyclone). The cells were pretreated with a test compound or control compound for 15 minutes after which 0.01% fixed S. aureus plus 100 μCi Tran 35-S label (ICN, Irvine, Calif.) was added and the cells incubated at 37° C. for 1 hour. After incubation, cells were centrifuged, washed once in phosphate buffer saline and resuspended in 1 ML RPMI containing 1% fetal calf serum The cells were again pretreated with a test or control compound for 15 minutes and then 0.01% S. aureus for 2 hours. At the end of the incubation, cells were centrifuged and supernates saved for immunoprecipitation. Cells were washed once in phosphate buffer saline and then lysed in RIPA, a continuous cell media buffer containing 2 mM phenylmethylsulfonyl fluoride, 10 mM iodoacetate, 1 μg/mL pepstatin A, 1 μg/mL leupeptin and 0.5 TIU aprotinin.
For the immunoprecipitations, an equal volume of 1% dry milk in RIPA buffer plus 50 μL of resuspended protein A sepharose CL-4B (Pharmacia, Piscataway, N.Y.) was added to supernates and 1 mL of 4% dry milk containing protein A sepharose CL-4B to cell lysates and samples rotated for 30 minutes at 4° C. Beads were then centrifuged down, samples transferred to fresh tubes and incubated overnight with 40 μg rabbit antihuman IL1B polyclonal antibody (Genzyme, Cambridge, Mass.). The IL-1β proteins were then precipitated with 70 μL protein A sepharose, resuspended in 60 μL SDS sample buffer and run on 15% […] gels. Autoradiography was performed on dried gels and the amount of radioactivity (counts per minute, cpm) quantitated using a Betascope 603 analyzer.
In the monocyte pulse chase assay, each test parameter was run in duplicate. Data was collected from the Beta Scope using a personal computer, then transferred to the VAX system for calculation of mean cpm and standard deviation of the mean. When test compounds were evaluated, the percent inhibition of release of mature IL1β was calculated as follows:
100×[1−(cells treated with stimuli+test compound−unstimulated cells)/(cells teed with stimuli+control compound−unstimulated cells)]
These % inhibition values were then used to calculate IC50 value for each compound. Since the human monocyte pulse chase assay uses primary cells from different donors, each test compound was run in 2-3 separate experiments, using monocytes from 2-3 different donors.

For a further series, the target named is T1, IL-1β protease (Homo sapiens, UniProt P29466).
T1 construct: Partially purified IL-1β protease is stored at −80° C
T1 sequence (P29466 120-297 limits assumed): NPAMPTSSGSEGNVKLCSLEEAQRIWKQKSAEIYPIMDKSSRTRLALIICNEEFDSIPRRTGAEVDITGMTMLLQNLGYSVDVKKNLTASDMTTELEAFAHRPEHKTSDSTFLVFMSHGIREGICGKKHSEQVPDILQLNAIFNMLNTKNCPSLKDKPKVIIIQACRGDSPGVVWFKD
T1 sequence (P29466 317-404 limits assumed): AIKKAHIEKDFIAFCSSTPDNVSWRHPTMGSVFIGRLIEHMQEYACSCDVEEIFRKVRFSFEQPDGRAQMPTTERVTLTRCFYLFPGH
The series is described as follows: IL-1β protease inhibition activity (HPLC assay, substrate TRITC-AYVHDAPVRS-NH2). It is filed as biochemical. Particulars: partially purified IL-1β protease; 15 min preincubation with inhibitor at 37° C., 60 min reaction. The procedure: Compounds of the present invention were tested for IL-1β protease inhibition activity according to the following protocol:
Partially purified IL-1β protease is stored at −80° C., thawed on ice, and preincubated for 10 minutes at 37° C. with 2.5 mM dithiothreitol in a buffer solution containing 10 mM Tris-HCl (pH 8.0) and 25% (v/w) glycerol. Inhibitors are prepared as stock solutions in dimethyl sulfoxide (DMSO). The protease is preincubated with inhibitor in a volume of […] in a 1.5 ml polypropylene microcentrifuge tube for 15 minutes at 37° C. The volume of compound added to the assay is adjusted to yield a DMSO concentration in the preincubation of <15% (v/v). The enzyme assay is then initiated by the addition of substrate (TRITC-AYVHDAPVRS-NH2) to yield a final concentration of […] in a final volume of […]. The reaction are carried out for 60 minutes at 37° C. in the dark and are terminated by the addition of […] of 10% trifluoroacetic acid (TFA). Following the addition of […] of 0.1% TFA, the samples are analyzed by high pressure liquid chromatography using a reverse phase (C18) column and elution with an acetonitrile/water/FA gradient. Substrate and product are monitored by their absorbance at 550 nm and elute at 4.2 and 5.2 minutes, respectively.

pIC50: −log10 of the molar value.

Take `O=C(O)C[C@H](NC(=O)OCc1ccccc1)C(=O)COC(=O)c1c(Cl)cccc1Cl` [Example 38, N-benzyloxycarbonyl-L-aspartic acid 2,6-dichlorobenzoyloxymethyl ketone]: the pIC50 in series [1] is 5.00; on IL-1β protease, 7.30.

On IL-1β protease, `O=C(O)C[C@H](NC(=O)OCc1ccccc1)C(=O)COC(=O)c1c(C(F)(F)F)cccc1C(F)(F)F` [Example 40, N-Benzyloxycarbonyl-L-aspartic acid 2,6-ditrifluoromethyl benzoyloxymethyl ketone] had a pIC50 of 7.00.

In turn, `O=C(O)C[C@H](NC(=O)OCc1ccccc1)C(=O)COc1c(Cl)cccc1Cl` [Example 41, N-Benzyloxycarbonyl-L-aspartic acid 2,6 dichlorophenoxymethyl ketone] had a pIC50 on IL-1β protease of 7.00.

Take `O=C(O)C[C@H](NC(=O)OCc1ccccc1)C(=O)COc1ccc(S(=O)(=O)N2CCOCC2)cc1F` [Example 42, N-Benzyloxycarbonyl-L-aspartic acid 2-fluoro-4-(N-morpholinylsulfonamido)phenoxymethyl ketone]: the melting point lay within 65 to 66 °C. Besides, the pIC50 against IL-1β protease is 6.49.

Take `COc1cccc(OC)c1C(=O)OCC(=O)[C@H](CC(=O)O)NC(=O)OCc1ccccc1` [Example 45, N-Benzyloxycarbonyl-L-aspartic acid 2,6-dimethoxybenzoyloxy methyl ketone]: the negative logarithm of the IC50 (pIC50) in series [1] was around 4.00.

For the compound `O=C(O)C[C@H](NC(=O)OCc1ccccc1)C(=O)COC(=O)c1c(F)cccc1F` [Example 48, N-Benzyloxycarbonyl-L-aspartic acid 2,6-difluorobenzoyloxymethyl ketone], in series [1], the pIC50 is around 4.00.

In turn, `CCCCNS(=O)(=O)c1ccc(Cl)c(C(=O)OCC(=O)[C@H](CC(=O)O)NC(=O)OCc2ccccc2)c1Cl` [Example 49, N-Benzyloxycarbonyl-L-aspartic acid 3-(N-butylsulfonamido)-2,6-dichlorobenzoyloxymethyl ketone] yielded a melting point of 48 to 50 °C. At IL-1β protease, the negative logarithm of the IC50 (pIC50) is 7.05.

`NC(=O)CNS(=O)(=O)c1ccc(Cl)c(C(=O)OCC(=O)[C@H](CC(=O)O)NC(=O)OCc2ccccc2)c1Cl` [Example 52, N-Benzyloxycarbonyl-L-aspartic acid 3-(N-[2-aminoacetamidoyl]sulfonamido)-2,6-dichlorobenzoyloxymethyl ketone]: the melting point was in the range of 54 to 56 °C. On IL-1β protease, this compound showed a pIC50 of 7.22.

In the case of `O=C(O)C[C@H](NC(=O)OCc1ccccc1)C(=O)COC(=O)c1c(Cl)ccc(S(=O)(=O)N2CCOCC2)c1Cl` [Example 53, N-Benzyloxycarbonyl-L-aspartic acid 2,6-dichloro-3-(N-morpholinylsulfonamido)benzoyloxymethyl ketone], on IL-1β protease, the negative logarithm of the IC50 (pIC50) is 7.05.

On to `COC(=O)N[C@@H](C)C(=O)N[C@@H](CC(=O)O)C(=O)COC(=O)c1c(Cl)cccc1Cl` [Example 54, N-Methoxycarbonyl-L-alanine-L-aspartic acid 2,6-dichlorobenzoyloxymethyl ketone], for which the pIC50 against IL-1β protease is 7.22.

Regarding `COC(=O)N[C@@H](Cc1ccccc1)C(=O)N[C@@H](CC(=O)O)C(=O)COC(=O)c1c(Cl)cccc1Cl` [Example 57, N-Methoxycarbonyl-L-phenylalanine-L-aspartic acid 2,6-dichlorobenzoyloxymethyl ketone], at IL-1β protease, the pIC50 was 7.15.

With `CC(C)[C@H](NC(=O)OCc1ccccc1)C(=O)N[C@@H](CC(=O)O)C(=O)COC(=O)c1c(Cl)cccc1Cl` [Example 61, N-Benzyloxycarbonyl-L-valine-L-aspartic acid 2,6-dichlorobenzoyloxy-methyl ketone], the pIC50 in series [1] was 6.05.

For `CC(C)[C@H](NC(=O)OCc1ccccc1)C(=O)N[C@@H](C)C(=O)N[C@@H](CC(=O)O)C(=O)COC(=O)c1c(Cl)cccc1Cl` [Example 63, N-Benzyloxycarbonyl-L-valine-L-alanine-L-aspartic acid 2,6-di-chlorobenzoyloxymethyl ketone], the pIC50 in series [1] was 6.30.

`O=C(O)C[C@H](NC(=O)c1ccco1)C(=O)COC(=O)c1c(Cl)cccc1Cl` [Example 64, N-(2-Furonyl)carbonyl-L-aspartic acid 2,6-dichlorobenzoyloxymethyl ketone]: at IL-1β protease, the pIC50 is 6.85.

`O=C(O)C[C@H](NC(=O)c1ccco1)C(=O)COC(=O)c1c(Cl)ccc(S(=O)(=O)N2CCOCC2)c1Cl` [Example 65, N-(2-Furonyl)carbonyl-L-aspartic acid 2,6-dichloro-3-(N-morpholinylsulfonamido)benzoyloxymethyl ketone]: in series [1], the pIC50 is 4.52.

On to `CN(C)Cc1ccc(C(=O)N[C@@H](CC(=O)O)C(=O)COC(=O)c2c(Cl)cccc2Cl)cc1` [Example 68, N-(4-N,N-dimethylaminomethyl)benzoyl-L-aspartic acid 2,6-dichlorobenzoyloxymethyl ketone], for which the melting point lay in the range of 55 to 57 °C. The negative-log IC50 (pIC50) against IL-1β protease is 6.52.

Turning to `O=C(O)C[C@@H](NC(=O)OCc1ccccc1)C(=O)COC(=O)c1c(Cl)cccc1Cl` [Example 69, N-Benzyloxycarbonyl-D-aspartic acid 2,6-dichlorobenzoyloxymethyl ketone], in series [1], the pIC50 is 5.00.

The compound `O=C(O)C[C@H](NC(=O)COC(=O)c1c(Cl)cccc1Cl)C(=O)COC(=O)c1c(Cl)cccc1Cl` [Example 70] showed a pIC50 against IL-1β protease of 6.70.

In the case of `CCN(CC)S(=O)(=O)c1c(F)c(F)c(OCC(=O)[C@H](CC(=O)O)NC(=O)[C@@H](NC(=O)OCc2ccccc2)C(C)C)c(F)c1F` [Example 71, N-Benzyloxycarbonyl-L-valine-L-aspartic acid 4-(N,N-diethyl-sulfonamido)-2,3,5,6-tetrafluorophenoxymethyl ketone], the pIC50 in series [1] was 5.30.

In turn, “N-Methoxycarbonyl-L-aspartic acid 2,6-dichlorobenzoyloxymethyl ketone [Example 67]” gave a pIC50 against IL-1β protease of 7.10.

In the case of “N-Methoxycarbonyl-L-valine-L-aspartic acid 2,6-dichlorobenzoyloxy-methyl ketone [Example 59]”, the pIC50 in series [1] was 5.00.

Usually pIC50 stands for −log10 of the IC50, conventionally taken in molar units. For orientation: melting point means the temperature, or range, at which the solid turns liquid.
